Measured values: US9856273B2, “ETP derivatives” (priority 2012, dated 2018)

Tests used:
[1] = test system: HCC1937 triple negative breast cancer cells; assay: Cell viability assay; assay type: cell-based
H3K9 trimethylation = assay: Western blot of histone H3 (trimethyl K9) in A2058 melanoma cells; assay type: cell-based, human
Method: (§1) Western blot analyses were performed with specific antibodies. Briefly, human A2058 melanoma, DU145 prostate, A549 non-small lung and SKOV3 ovarian cancer cells were treated with ETP69. Whole-cell lysates (40 […]g) or histone extracts (10 […]g) were resolved by SDS-PAGE. Primary specific antibodies to histone H3 and histone H3 (trimethyl K9) were incubated in PBS (pH 7.5) with 0.1% (v/v) Tween-20 and 5% (w/v) BSA with gentle agitation overnight at 4° C. Other specific antibodies were diluted in PBS (pH 7.5) with 5% (w/v) nonfat milk and 0.1% (v/v) Tween-20 over night at 4° C. Horseradish peroxidase-conjugated secondary antibodies were incubated in PBS (pH 7.5) with 5% (w/v) nonfat milk and 0.1% (v/v) Tween-20 for 1 h at room temperature. Positive immuno-reactive proteins were detected using the ECL system (Pierce, Rockford, Ill.).

p16 tumor suppressor = assay: Western blot, induction of p16; assay type: cell-based, human; settings: DU145 prostate cancer cells and A2058 melanoma cells
Method: as §1, with “Induction of p16, p53, p21waf1 and p27 (FIGS. 8 and 9): Western” for “Western”, “[…]g)” for “[…]g) or histone extracts (10 […]g)”, “p53, p21^WAF1, p27(Kip1), p16” for “histone H3”, “Actin” for “histone H3 (trimethyl K9) were incubated in PBS (pH 7.5) with 0.1% (v/v) Tween-20 and 5% (w/v) BSA with gentle agitation overnight at 4° C. Other specific antibodies”

p53 tumor suppressor = assay: Western blot, induction of p53; assay type: cell-based, human; settings: A2058, DU145, A549 and SKOV3 cells (SKOV3 cells do not express p53 protein)
Method: as §1, with “Induction of p16, p53, p21waf1 and p27 (FIGS. 8 and 9): Western” for “Western”, “[…]g)” for “[…]g) or histone extracts (10 […]g)”, “p53, p21^WAF1, p27(Kip1), p16” for “histone H3”, “Actin” for “histone H3 (trimethyl K9) were incubated in PBS (pH 7.5) with 0.1% (v/v) Tween-20 and 5% (w/v) BSA with gentle agitation overnight at 4° C. Other specific antibodies”

[2] = test system: p21WAF1 cyclin-dependent kinase inhibitor 1; assay: Western blot, induction of p21WAF1; assay type: cell-based, human; settings: A2058, DU145, A549 and SKOV3 cells
Method: as §1, with “Induction of p16, p53, p21waf1 and p27 (FIGS. 8 and 9): Western” for “Western”, “[…]g)” for “[…]g) or histone extracts (10 […]g)”, “p53, p21^WAF1, p27(Kip1), p16” for “histone H3”, “Actin” for “histone H3 (trimethyl K9) were incubated in PBS (pH 7.5) with 0.1% (v/v) Tween-20 and 5% (w/v) BSA with gentle agitation overnight at 4° C. Other specific antibodies”

[3] = test system: Cyclin-dependent kinase inhibitor 1B p27(Kip1); assay: Western blot, induction of p27(Kip1); assay type: cell-based, human; settings: A2058, DU145, A549 and SKOV3 cells
Method: as §1, with “Induction of p16, p53, p21waf1 and p27 (FIGS. 8 and 9): Western” for “Western”, “[…]g)” for “[…]g) or histone extracts (10 […]g)”, “p53, p21^WAF1, p27(Kip1), p16” for “histone H3”, “Actin” for “histone H3 (trimethyl K9) were incubated in PBS (pH 7.5) with 0.1% (v/v) Tween-20 and 5% (w/v) BSA with gentle agitation overnight at 4° C. Other specific antibodies”

[4] = test system: SKOV3 ovarian cancer cells; assay: Annexin V-FITC apoptosis assay; assay type: cell-based, human; settings: 48 h
Method: Apoptosis Determinations (FIG. 11): Apoptosis assays of human SKOV3 ovarian cancer cells based on […] were carried out using Annexin V-FITC. Briefly, cells were seeded in 6-well plates, incubated overnight at 37° C. in 5% (v/v) CO2 and exposed to ETP69 in a dose-dependent manner for 48 h. DMSO was used as the vehicle control. Cells were analyzed using a FACScan flow cytometer to quantify fluorescence. Apoptotic cells were defined as Annexin V-FITC positive. Each experiment was performed in quadruplicate.

[5] = test system: A2058 melanoma SQ xenografts; assay type: in vivo, mouse; settings: A2058 xenograft, 20 mg/kg IP once daily for 13 days
Method: In Vivo Xenograft Procedures for Lung Cancer, Melanoma, and Ovarian Cancer (See FIGS. 15A, 15B, 16A, 16B, 17A, 17B, 18A and 18B): Human A2058 melanoma cells (3×10^6) were resuspended in serum-free RPMI1640 medium and subcutaneously injected into the flank of 5-6 weeks old Athymic female nude mouse (NCI). When palpable tumor sizes reached at approximately 100 mm^3, mice were divided into two groups (vehicle=5, treatment=5). Then, ETP69 was administered with intraperitoneal (IP) injection at 20 mg/kg with vehicle (10% DMSO+0.5% Teen 20+89.5% saline), once daily for 13 days. Tumor volumes were calculated by the formula 1/2a×b^2, where a is the long diameter, and b is the short diameter. Tumor volumes correlate with tumor weights. The statistical significance of group differences was analyzed using a Student's t-test with the two-tailed distribution. P values less than 0.05 were considered statistically significant.

[6] = test system: BxPC3 pancreatic cancer cell line; assay: MTS assay; assay type: cell-based
Method: (§2) MTS Assay: Panc1, BxPC3, or SU.86.86 cells were seeded in a 96-well plate at a density of 7500 cells/well prior to treatment with increasing amounts of ETP69 or DMSO vehicle control. Forty-eight hours post treatment cells were incubated with the MTS substrate (CellTiter 96 AQueous One Solution Cell Proliferation Assay, Promega, Madison, Wis.) according to the manufacturer's instructions. The absorbance was measured at 490 nm using a 96-well plate reader (Synergy 4, Biotek), and the data were normalized to the absorbance of DMSO-treated cells. IC50 values were determined using GraphPad Prism's non-linear regression function. See FIGS. 11, 21, 22A, 22B, 23, 24A, 24B, 24C, 25A and 25B.

[7] = test system: Panc1 pancreatic cancer cell line; assay: MTS assay; assay type: cell-based; settings: Homo sapiens, PANC-1; Panc1, 48 h
Method: as §2

[8] = test system: Su.86.86 pancreatic cancer cell line; assay: MTS assay; assay type: cell-based
Method: as §2

[9] = test system: Panc1 pancreatic cancer cells; assay: Senescence assay (senescence-associated beta-galactosidase activity); assay type: cell-based; settings: 5 days, compared to DMSO
Method: Senescence Assay: Panc1 cells were seeded at a density of 3×10^4 cells per well in a 24-well plate. The cells were then treated with 100 nM ETP69 or 0.3% DMSO (vehicle control). Panc-1 and SU.86.86 cells expressing SUV39H1 shRNA or a non-targeting (NT) control shRNA were also seeded in 24-well plates at a density of 3×10^4 cells/well and 5×10^4 cells/well, respectively. After 5 days, cells were washed with PBS, fixed with 3% formaldehyde/PBS, and stained over night at 37° C. with a freshly prepared staining solution (1 mg/ml 5-bromo-4-chloro-3-indolyl b-D-galactoside in 40 mM citric acid/sodium phosphate, pH 6.0, 5 mM potassium ferrocyanide, 5 mM potassium ferricyanide, 150 mM NaCl, 2 mM MgCl2). The blue stain indicates senescence-associated β-galactosidase activity. Photographs were taken with a 100× or a 20× objective under brightfield illumination using an INFINITY2 digital CCD camera (Lumenera, Canada) mounted on a Nikon Eclipse TS100 inverted microscope.

[10] = test system: normal pancreatic epithelial cells; assay: Viability of normal pancreatic epithelial cells; settings: 100 nM to 1000 nM

**Q.** Which viability inhibition [1] does the source give for CN1C(=O)[C@@]23C[C@](C)(C#N)[C@H](c4ccc5c(c4)OCO5)N2C(=O)[C@]1(C)SS3 (racemic) [ETP69, Rac-(3S,6S,7S,8aS)-6-(Benzo[d][1,3]dioxol-5-yl)-2,3,7-trimethyl-1,4-dioxohexahydro-6H-3,8a-epidithiopyrrolo[1,2-a]pyrazine-7-carbonitrile] here?
**A.** viability inhibition

**Q.** And the “inhibition of H3K9 trimethylation” value (H3K9 trimethylation)?
**A.** inhibition

**Q.** And the “induction of p16 tumor suppressor” value (p16 tumor suppressor)?
**A.** induces

**Q.** What about the “induction of p53” value (p53 tumor suppressor) of the same compound?
**A.** induces

**Q.** What about the “induction of p21WAF1” value [2] of the same compound?
**A.** induces

**Q.** And the “induction of p27(Kip1)” value [3]?
**A.** induces

**Q.** And the apoptosis [4]?
**A.** induces apoptosis

**Q.** And the toxicity symptoms [5]?
**A.** no observable toxicity symptoms

**Q.** And the tumor volume [5]?
**A.** decreased

**Q.** What about the tumor weight [5] of the same compound?
**A.** decreased

**Q.** What about the killing of cells ([6]; BxPC3, 100 nM to 1000 nM) of the same compound?
**A.** significant killing

**Q.** And the IC50 ([6]; Homo sapiens, BXPC-3, BxPC3, 48 h)?
**A.** 210 nM

**Q.** What about the IC50 [7] of the same compound?
**A.** 824 nM

**Q.** And the IC50 ([8]; Homo sapiens, SU.86.86, 48 h)?
**A.** 86 nM

**Q.** What about the killing of cells ([8]; SU86.86, 100 nM to 1000 nM) of the same compound?
**A.** significant killing

**Q.** And the senescence-associated beta-galactosidase activity [9]?
**A.** increased senescence-associated beta-galactosidase activity

**Q.** And the “destruction of normal pancreatic cells” value [10]?
**A.** little destruction
